One assay relates to Arabidopsis roots. The settings on record: kinetin applied during infection; Agrobacterium tzs mutant; Hwang et al., 2010; cited from earlier work.
A further assay relates to MTF. The note with it: Col-0 and Bl-1 root segments treated for two days with trans-zeatin.
Assay [1] concerns Arabidopsis root segments. The note with it: Col-0 and Bl-1 root segments, 24 h, 1.4 μM trans-zeatin. The method, then: Root segments of Arabidopsis Bl-1 and MTF-RNAi lines were incubated with A. tumefaciens A208 containing pJZ383 (Ptac::GFP). Root segments were co-cultivated with 10^5 cfu/mL (ecotype Columbia) or 10^8 cfu/mL (ecotype Bl-1) for 24 h in B5 minimal medium. Root segments were rinsed and visualized by epifluorescence microscopy.
Agrobacterium attachment assays were conducted as described herein. Col-0 and Bl-1 root segments were co-cultivated with A281 at 10^6 or 10^8 cfu/mL, respectively, for 24 h in the presence or absence of 1.4 μM trans-zeatin.

Assay [2] concerns Arabidopsis root segments. The note with it: A. tumefaciens A348 or A281 (no TZS), 1.4 or 14 μM trans-zeatin.
Experimental: Neither of these strains harbors TZS. Trans-zeatin concentrations representing the range secreted by nopaline-type A. tumefaciens strains were used.
A. tumefaciens was cultured in Yeast Extract-Peptone medium (Lichtenstein et al., 1986) containing the appropriate antibiotics. Root transformation assays were carried out as previously described by Nam et al. with minor modifications (Tenea et al., 2009). MS basal medium lacking phytohormones was used to select for tumors. GUS activity assays were carried out after infection of root segments with A. tumefaciens At849 (Narasimhulu et al., 1996) for 4-6 d, using X-gluc (Jefferson et al., 1987).
(§1) Roots were infected with bacteria at 10^6 cfu/mL (Col-0) or 10^8 cfu/mL (Bl-1). Following infection, root segments were either transferred to MS basal medium containing 100 μg/mL Timentin and incubated for 4-5 weeks before recording the percentage of root segments developing tumors, or used for RNA isolation.

Results on two compounds are retold here after patent publication US10150969B2, “Methods and compositions to regulate plant transformation susceptibility” (priority 2010, dated 2018).

Experimental for MTF: Real-time RT-PCR was carried out using total RNA isolated in triplicate from roots of plants grown in liquid B5 medium. PCR was performed in triplicate on an ABI Prism 7500 Sequence Detection System (Applied Biosystems, Foster City, Calif.). Expression levels were calculated by the relative standard curve method (Applied Biosystems) for all transcripts except ORA59, where the comparative cycle threshold method (Applied Biosystems) was used, and normalized to Actin2 transcript levels.
as §1

Take `c1coc(CNc2ncnc3[nH]cnc23)c1` [kinetin]: the “susceptibility of roots to transformation” value in the assay with Arabidopsis roots is given as “increased the susceptibility”.
For `C/C(=C\CNc1ncnc2nc[nH]c12)CO` [trans-zeatin], the “decrease of MTF transcript levels” value in the assay on MTF is listed as 30-60%. In assay [1], the “attachment of A. tumefaciens A281” value was “increased attachment”. In addition, in assay [2] (Col-0 roots, percentage of root segments developing tumors), the “increase in transformation efficiency” value is recorded as 4-8 fold. For the same compound, the increase in susceptibility in assay [2] (ecotype Bl-1 roots) is on record as 2-3 fold.
